# From PubChem BioAssay AID2060894 (Molecular Pharmacology Branch, DTP, NCI, 2025)
# System: K12877-001-R-J1-PDC complex spheroid viability
# Experiment: Anticancer human tumor K12877-001-R-J1-PDC patient-derived lung adenocarcinoma cell line growth inhibition [RAS]
# Details: for IC50: curve of first compound; for viability, T/C: stronger effect = lower value
# How it was run: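 Multi-cell-type spheroids: tumor cells plus HUVEC endothelial cells and mesenchymal stem cells. RAS-pathway inhibitors were combined with targeted agents, each dosed in half-log steps down from clinical Cmax, or from 10 microM when Cmax was unknown.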
# [1] = second compound 0.000949 µM, first compound 0.0316 µM
# [2] = second compound 0.000949 µM, first compound 0.1 µM
# [3] = second compound 0.000949 µM, first compound 0.316 µM
# [4] = second compound 0.000949 µM, first compound 1 µM
# [5] = second compound 0.000949 µM, first compound 3.16 µM
# [6] = second compound 0.000949 µM, first compound 10 µM
# [7] = second compound 0.003 µM, first compound 0.0316 µM
# [8] = second compound 0.003 µM, first compound 0.1 µM
# [9] = second compound 0.003 µM, first compound 0.316 µM
# [10] = second compound 0.003 µM, first compound 1 µM
# [11] = second compound 0.003 µM, first compound 3.16 µM
# [12] = second compound 0.003 µM, first compound 10 µM
# [13] = second compound 0.00949 µM, first compound 0.0316 µM
# [14] = second compound 0.00949 µM, first compound 0.1 µM
# [15] = second compound 0.00949 µM, first compound 0.316 µM
# [16] = second compound 0.00949 µM, first compound 1 µM
# [17] = second compound 0.00949 µM, first compound 3.16 µM
# [18] = second compound 0.00949 µM, first compound 10 µM
# [19] = second compound 0.03 µM, first compound 0.0316 µM
# [20] = second compound 0.03 µM, first compound 0.1 µM
# [21] = second compound 0.03 µM, first compound 0.316 µM
# [22] = second compound 0.03 µM, first compound 1 µM
# [23] = second compound 0.03 µM, first compound 3.16 µM
# [24] = second compound 0.03 µM, first compound 10 µM
# [25] = second compound 0.0949 µM, first compound 0.0316 µM
# [26] = second compound 0.0949 µM, first compound 0.1 µM
# [27] = second compound 0.0949 µM, first compound 0.316 µM
# [28] = second compound 0.0949 µM, first compound 1 µM
# [29] = second compound 0.0949 µM, first compound 3.16 µM
# [30] = second compound 0.0949 µM, first compound 10 µM
# [31] = second compound 0.3 µM, first compound 0.0316 µM
# [32] = second compound 0.3 µM, first compound 0.1 µM
# [33] = second compound 0.3 µM, first compound 0.316 µM
# [34] = second compound 0.3 µM, first compound 1 µM
# [35] = second compound 0.3 µM, first compound 3.16 µM
# [36] = second compound 0.3 µM, first compound 10 µM
# 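Note: spheroids exposed to agents for one week before readout.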
# 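Throughout, for viability, T/C: tumour cells co-cultured with HUVEC and mesenchymal stem cells in spheroids.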
smiles,measurement,setting,value
CC1(O)CCCC1n1c(=O)c(C(F)F)cc2cnc(NC3CCN(S(C)(=O)=O)CC3)nc21 (centres undefined) + CCn1c(-c2cc(N3CCN(C)CC3)cnc2C(C)OC)c2c3cc(ccc31)-c1csc(n1)CC(NC(=O)C1CC1C)C(=O)N1CCCC(N1)C(=O)OCC(C)(C)C2,IC50,second compound 0.000949 µM,4.01 µM
same,IC50,second compound 0.003 µM,1.99 µM
same,IC50,second compound 0.00949 µM,1.84 µM
same,IC50,second compound 0.03 µM,0.889 µM
same,IC50,second compound 0.0949 µM,0.545 µM
same,IC50,second compound 0.3 µM,0.382 µM
same,"viability, T/C",[1],95.9%
same,"viability, T/C",[2],78%
same,"viability, T/C",[3],80.6%
same,"viability, T/C",[4],75.6%
same,"viability, T/C",[5],64.5%
same,"viability, T/C",[6],3.86%
same,"viability, T/C",[7],68.9%
same,"viability, T/C",[8],74%
same,"viability, T/C",[9],64.5%
same,"viability, T/C",[10],56.2%
same,"viability, T/C",[11],46.3%
same,"viability, T/C",[12],3.15%
same,"viability, T/C",[13],69.5%
same,"viability, T/C",[14],75.4%
same,"viability, T/C",[15],46.4%
same,"viability, T/C",[16],56.5%
same,"viability, T/C",[17],48.5%
same,"viability, T/C",[18],2.9%
same,"viability, T/C",[19],98.8%
same,"viability, T/C",[20],82%
same,"viability, T/C",[21],47.6%
same,"viability, T/C",[22],58.9%
same,"viability, T/C",[23],46%
same,"viability, T/C",[24],2.97%
same,"viability, T/C",[25],92%
same,"viability, T/C",[26],62.1%
same,"viability, T/C",[27],45.7%
same,"viability, T/C",[28],50.4%
same,"viability, T/C",[29],41.6%
same,"viability, T/C",[30],2.68%
same,"viability, T/C",[31],76.7%
same,"viability, T/C",[32],58%
same,"viability, T/C",[33],41.7%
same,"viability, T/C",[34],49.6%
same,"viability, T/C",[35],43.6%
same,"viability, T/C",[36],2.64%
CCC(CC)c1cc(NC2CCC(N)C2)n2nccc2n1 (centres undefined) + CCn1c(-c2cc(N3CCN(C)CC3)cnc2C(C)OC)c2c3cc(ccc31)-c1csc(n1)CC(NC(=O)C1CC1C)C(=O)N1CCCC(N1)C(=O)OCC(C)(C)C2,IC50,second compound 0.000949 µM,1.31 µM
same,IC50,second compound 0.003 µM,1.29 µM
same,IC50,second compound 0.00949 µM,1.38 µM
same,IC50,second compound 0.03 µM,1.51 µM
same,IC50,second compound 0.0949 µM,1.27 µM
same,IC50,second compound 0.3 µM,1.1 µM
same,"viability, T/C",[1],87.7%
same,"viability, T/C",[2],80%
same,"viability, T/C",[3],84.6%
same,"viability, T/C",[4],64.7%
same,"viability, T/C",[5],1.77%
same,"viability, T/C",[6],0.95%
same,"viability, T/C",[7],65.8%
same,"viability, T/C",[8],69.4%
same,"viability, T/C",[9],66.5%
same,"viability, T/C",[10],64%
same,"viability, T/C",[11],1.46%
same,"viability, T/C",[12],0.76%
same,"viability, T/C",[13],62%
same,"viability, T/C",[14],65.9%
same,"viability, T/C",[15],71.3%
same,"viability, T/C",[16],76.7%
same,"viability, T/C",[17],1.47%
same,"viability, T/C",[18],0.9%
same,"viability, T/C",[19],95.4%
same,"viability, T/C",[20],92.6%
same,"viability, T/C",[21],99.5%
same,"viability, T/C",[22],77.5%
same,"viability, T/C",[23],1.04%
same,"viability, T/C",[24],0.76%
same,"viability, T/C",[25],119%
same,"viability, T/C",[26],107%
same,"viability, T/C",[27],102%
same,"viability, T/C",[28],63.6%
same,"viability, T/C",[29],1.11%
same,"viability, T/C",[30],0.76%
same,"viability, T/C",[31],94.6%
same,"viability, T/C",[32],98.1%
same,"viability, T/C",[33],86.2%
same,"viability, T/C",[34],55.2%
same,"viability, T/C",[35],0.75%
same,"viability, T/C",[36],0.8%
